± gives the expanded uncertainty stated by the source.
Key:
[1] = 298.15 K; 101.33 kPa; Liquid; Vibrating tube method
[2] = refractive index (Na D-line) (dimensionless); conditions: 298.2 K; 101.33 kPa; Liquid; Standard Abbe refractometry
[3] = relative permittivity at zero frequency (dimensionless); conditions: 298.2 K; 101.33 kPa; Liquid; Parallel plate capacitor

mass density [1] [kg/m3]	refractive index [2]	relative permittivity at zero frequency [3]	SMILES
773.78 ± 0.24	1.4234 ± 0.0007	2.02 ± 0.01	C1CCCCC1 [cyclohexane]
–	1.3325 ± 0.0007	–	O [water]
764.92 ± 0.24	1.4198 ± 0.0007	2.01 ± 0.01	CC1CCCCC1 [methylcyclohexane]

SMILES	mass density [1] [kg/m3]	refractive index [2]	relative permittivity at zero frequency [3]
Cc1ccccc1 [toluene]	862.02 ± 0.24	1.4938 ± 0.0007	2.38 ± 0.01

From the NIST ThermoML archive (doi:10.1016/j.jct.2012.04.011)
